Measured values reported in article PMC10793102 (Acta Pharmaceutica Sinica. B, 2023).
pEC50, pIC50: −log10 of the molar value. Where two headings read alike, the source gives them in different places.

Experiments:
L929 = test: Cell viability assay, protection from necroptosis in L929 cells; format: cell-based, mouse; conditions: for pEC50: Mus musculus, L929, 16 h; for protective effects against cell death of L929 cells induced by TNFα: TNFα 40 ng/mL, 15 h, Fig. 2A
[1] = test system: phosphorylation of RIPK1, RIPK3 and MLKL; test: Western blotting of necroptosis pathway in stimulated HT-29 cells; format: cell-based, human; conditions: compounds at 5 μmol/L, 4 h
FADD−/− Jurkat = test: Cell viability assay, protection from necroptosis in FADD−/− Jurkat cells; format: cell-based; conditions: Homo sapiens, 16 h
[2] = Metabolic stability in mouse liver microsomes; format: in vitro ADME
[3] = Metabolic stability in human liver microsomes; format: in vitro ADME
PK study in mice = format: in vivo; conditions: male, ICR, mouse, plasma
hRIPK3 = hRIPK3 (Homo sapiens, UniProt Q9Y572); test: In vitro RIPK3 kinase activity assay; format: biochemical
Chain of hRIPK3 (Q9Y572 whole entry): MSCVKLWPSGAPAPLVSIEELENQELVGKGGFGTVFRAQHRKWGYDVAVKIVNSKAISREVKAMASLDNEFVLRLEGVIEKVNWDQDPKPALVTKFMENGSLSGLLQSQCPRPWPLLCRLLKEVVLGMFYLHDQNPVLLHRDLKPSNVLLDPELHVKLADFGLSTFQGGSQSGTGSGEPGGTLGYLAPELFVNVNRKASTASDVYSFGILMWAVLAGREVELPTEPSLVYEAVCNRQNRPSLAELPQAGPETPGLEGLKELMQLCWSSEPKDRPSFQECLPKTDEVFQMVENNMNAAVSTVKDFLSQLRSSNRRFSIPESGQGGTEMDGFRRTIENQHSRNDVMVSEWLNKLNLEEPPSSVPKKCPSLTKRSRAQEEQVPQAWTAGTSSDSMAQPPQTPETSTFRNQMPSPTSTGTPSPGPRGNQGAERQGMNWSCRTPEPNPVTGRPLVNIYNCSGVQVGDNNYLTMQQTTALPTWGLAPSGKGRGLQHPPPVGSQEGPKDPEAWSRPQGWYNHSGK

hRIPK1 = target: T1, hRIPK1 (Homo sapiens, UniProt Q13546); test: In vitro RIPK1 kinase activity assay; format: biochemical; conditions: Enzymatic IC50s RIPK1, hRIPK1 enzymatic assay
T1 sequence (Q13546 1-671): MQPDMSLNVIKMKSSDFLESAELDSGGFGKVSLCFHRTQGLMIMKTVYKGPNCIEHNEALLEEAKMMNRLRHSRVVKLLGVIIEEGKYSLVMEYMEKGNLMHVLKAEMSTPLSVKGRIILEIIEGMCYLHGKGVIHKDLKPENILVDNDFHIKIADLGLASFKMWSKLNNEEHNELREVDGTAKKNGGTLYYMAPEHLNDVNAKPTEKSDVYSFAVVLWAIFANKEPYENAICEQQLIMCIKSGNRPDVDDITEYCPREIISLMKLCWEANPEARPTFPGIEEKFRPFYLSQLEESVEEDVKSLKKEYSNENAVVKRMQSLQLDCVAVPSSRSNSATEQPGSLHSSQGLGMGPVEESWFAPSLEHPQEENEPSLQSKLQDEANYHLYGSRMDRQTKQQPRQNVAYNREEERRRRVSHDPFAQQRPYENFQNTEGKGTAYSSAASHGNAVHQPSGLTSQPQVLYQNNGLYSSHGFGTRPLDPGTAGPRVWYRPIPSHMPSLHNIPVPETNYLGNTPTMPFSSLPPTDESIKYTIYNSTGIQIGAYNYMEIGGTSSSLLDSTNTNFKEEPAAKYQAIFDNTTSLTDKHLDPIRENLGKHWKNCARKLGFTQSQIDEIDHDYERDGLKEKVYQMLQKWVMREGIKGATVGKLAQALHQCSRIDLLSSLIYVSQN

[4] = Cytotoxicity at high concentrations in cell viability assays; format: cell-based
TEL-TRKA fusion = TEL-TRKA fusion (Homo sapiens, UniProt P04629+P41212); test: Anti-proliferation in engineered Ba/F3 cells dependent on TEL-TRKA; format: cell-based; conditions: read-out: IC50 anti-proliferative effect, TEL-TRKA Ba/F3; 72 h
Chain of TEL-TRKA fusion (P04629 510-781 limits assumed, one chain of several): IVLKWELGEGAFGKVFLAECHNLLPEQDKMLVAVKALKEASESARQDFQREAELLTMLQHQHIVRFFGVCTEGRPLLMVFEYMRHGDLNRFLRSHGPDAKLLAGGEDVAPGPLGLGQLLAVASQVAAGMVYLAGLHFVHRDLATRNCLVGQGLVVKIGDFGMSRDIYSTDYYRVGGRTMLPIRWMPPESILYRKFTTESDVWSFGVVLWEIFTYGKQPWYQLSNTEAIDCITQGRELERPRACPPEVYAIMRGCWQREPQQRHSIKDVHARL

[5] = read-out: EC50 FADD−/− Jurkat T + S
[6] = read-out: EC50 FADD−/− Jurkat TNFα

SMILES	pEC50 (L929; read-out: EC50 L929 T + S)	pEC50 (L929; read-out: EC50 L929 TNFα)	pEC50 (FADD−/− Jurkat; [5])	pEC50 (FADD−/− Jurkat; [6])	other results
CCN1CCN(Cc2ccc(NC(=O)Cc3ccc(-n4cnc5cc(C(=O)NC)ccc54)cc3)cc2C(F)(F)F)CC1 [compound 11]	6.15	6.72	< 5.00	< 5.00	protective effects against cell death of L929 cells induced by TNFα (L929): protective effects similar to 10; phosphorylation of RIPK1 (Western blot) [1]: diminished the phosphorylation of the upstream effector RIPK1; phosphorylation of RIPK3 and MLKL (Western blot) [1]: comparably diminished the phosphorylation of RIPK3 and the downstream MLKL
CCN1CCN(Cc2ccc(NC(=O)Nc3ccc(-n4cnc5cc(C(=O)NC)ccc54)cc3)cc2C(F)(F)F)CC1 [compound 12]					protective effects against cell death of L929 cells induced by TNFα (L929): protective effects similar to 10; phosphorylation of RIPK1 (Western blot) [1]: diminished the phosphorylation of the upstream effector RIPK1; phosphorylation of RIPK3 and MLKL (Western blot) [1]: comparably diminished the phosphorylation of RIPK3 and the downstream MLKL
CNC(=O)c1ccc2c(c1)ncn2-c1ccc(CNC(=O)c2cc(Cc3ccccc3)n(C)n2)cc1 [compound 20, 1-(4-((5-Benzyl-1-methyl-1H-pyrazole-3-carboxamido)methyl)phenyl)-N-methyl-1H-benzo[d]imidazole-5-carboxamide]		6.51	7.36	8.29	half-life [2]: ~40 min; half-life [3]: ~40 min
CNC(=O)c1ccc2c(c1)ncn2-c1ccc(CNC(=O)c2cnn(C)c2Cc2ccccc2)cc1 [compound 27]	7.11	7.70	8.28	9.30	half-life [2]: ~40 min; half-life [3]: ~40 min
Cn1nc(C(=O)NCc2ccc(-n3ccc4c(N)ncnc43)cc2)cc1Cc1ccccc1 [compound 45]		5.54	6.01	6.86	
CCn1ncc(C(=O)NCc2ccc(-n3cnc4c(N)ncnc43)cc2)c1Cc1ccccc1 [compound 47]	7.13	7.66	7.46	8.92	
Cn1nc(Cl)c(C(=O)NCc2ccc(-n3cnc4c(N)ncnc43)cc2)c1Cc1ccccc1 [compound 48, N-(4-(6-Amino-9H-purin-9-yl)benzyl)-5-benzyl-3-chloro-1-methyl-1H-pyrazole-4-carboxamide]	8.34	9.30	9.15	9.70	AUC(0-inf) (PK study in mice; iv, 1 mg/kg): 1310 ng·h/mL; AUC(0-t) (PK study in mice; iv, 1 mg/kg): 1300 ng·h/mL; MRT inf (PK study in mice; iv, 1 mg/kg): 118 min; Vd (PK study in mice; iv, 1 mg/kg): 1.55 L/kg; clearance (PK study in mice; iv, 1 mg/kg): 13.3 mL/min/kg; half-life (PK study in mice; iv, 1 mg/kg): 48.6 min; AUC(0-inf) (PK study in mice; po, 10 mg/kg): 8400 ng·h/mL; AUC(0-t) (PK study in mice; po, 10 mg/kg): 8280 ng·h/mL; Cmax (PK study in mice; po, 10 mg/kg): 3050 ng/mL; MRT inf (PK study in mice; po, 10 mg/kg): 243 min; Tmax (PK study in mice; po, 10 mg/kg): 25.2 min; bioavailability (PK study in mice; po, 10 mg/kg): 63.9%; half-life (PK study in mice; po, 10 mg/kg): 83.4 min
Nc1ncnc2c1ncn2-c1ccc(CNC(=O)c2ccc(F)n2Cc2ccccc2)cc1 [compound 51]	7.13	9.05	8.80	10.00	
C[C@H](NC(=O)c1cnn(C)c1Cc1ccccc1)c1ccc(-n2cnc3c(N)ncnc32)cc1 [compound 54, (S)-N-(1-(4-(6-Amino-9H-purin-9-yl)phenyl)ethyl)-5-benzyl-1-methyl-1H-pyrazole-4-carboxamide]	9.22	9.40	9.52	10.10	AUC(0-inf) (PK study in mice; iv, 1 mg/kg): 672 ng·h/mL; AUC(0-t) (PK study in mice; iv, 1 mg/kg): 659 ng·h/mL; MRT inf (PK study in mice; iv, 1 mg/kg): 119 min; Vd (PK study in mice; iv, 1 mg/kg): 2.98 L/kg; clearance (PK study in mice; iv, 1 mg/kg): 25 mL/min/kg; half-life (PK study in mice; iv, 1 mg/kg): 26.4 min; AUC(0-inf) (PK study in mice; po, 10 mg/kg): 2480 ng·h/mL; AUC(0-t) (PK study in mice; po, 10 mg/kg): 2440 ng·h/mL; Cmax (PK study in mice; po, 10 mg/kg): 1200 ng/mL; MRT inf (PK study in mice; po, 10 mg/kg): 183 min; Tmax (PK study in mice; po, 10 mg/kg): 30 min; bioavailability (PK study in mice; po, 10 mg/kg): 37%; half-life (PK study in mice; po, 10 mg/kg): 54 min; pIC50 (hRIPK3): < 6.00; pIC50 (hRIPK1): ~8.22
C[C@@H](NC(=O)c1cnn(C)c1Cc1ccccc1)c1ccc(-n2cnc3c(N)ncnc32)cc1 [compound 55]	6.66	7.28	6.88	7.44	
Cn1ncc(C(=O)NC(C)(C)c2ccc(-n3cnc4c(N)ncnc43)cc2)c1Cc1ccccc1 [compound 56]		6.26	7.55	8.12	
C[C@H](NC(=O)c1c(Cl)nn(C)c1Cc1ccccc1)c1ccc(-n2cnc3c(N)ncnc32)cc1 [compound 57]	9.40	9.52	9.52	10.05	cytotoxicity at high concentrations [4]: increased cytotoxicity at higher concentrations
C[C@H](NC(=O)c1nnn(C)c1Cc1ccccc1)c1ccc(-n2cnc3c(N)ncnc32)cc1 [compound 58]	> 11.00	> 11.00	> 11.00	> 11.00	cytotoxicity at high concentrations [4]: increased cytotoxicity at higher concentrations
Cn1nc2c(c1Cc1ccccc1)C(=O)N(Cc1ccc(-n3cnc4c(N)ncnc43)cc1)CC2 [compound 59]	7.41	8.08	8.64	9.70	
Cn1nc2c(c1Cc1ccccc1)C(=O)N(Cc1ccc(-n3cnc4c(N)ncnc43)cc1)C2 [compound 60]	6.94	8.32	8.54	10.30	
C[C@@H](c1ccc(-n2cnc3c(N)ncnc32)cc1)N1Cc2nn(C)c(Cc3ccccc3)c2C1=O [compound 63, (S)-5-(1-(4-(6-Amino-9H-purin-9-yl)phenyl)ethyl)-3-benzyl-2-methyl-5,6-dihydropyrrolo[3,4-c]pyrazol-4(2H)-one]	8.80	9.52	9.40	10.52	AUC(0-inf) (PK study in mice; iv, 1 mg/kg): 644 ng·h/mL; AUC(0-t) (PK study in mice; iv, 1 mg/kg): 643 ng·h/mL; MRT inf (PK study in mice; iv, 1 mg/kg): 58.2 min; Vd (PK study in mice; iv, 1 mg/kg): 1.6 L/kg; clearance (PK study in mice; iv, 1 mg/kg): 26.7 mL/min/kg; half-life (PK study in mice; iv, 1 mg/kg): 36.6 min; AUC(0-inf) (PK study in mice; po, 10 mg/kg): 1730 ng·h/mL; AUC(0-t) (PK study in mice; po, 10 mg/kg): 1700 ng·h/mL; Cmax (PK study in mice; po, 10 mg/kg): 714 ng/mL; MRT inf (PK study in mice; po, 10 mg/kg): 165 min; Tmax (PK study in mice; po, 10 mg/kg): 40.2 min; bioavailability (PK study in mice; po, 10 mg/kg): 26.4%; half-life (PK study in mice; po, 10 mg/kg): 63 min; pIC50 (TEL-TRKA fusion): < 6.00
